These results are taken from patent publication US6696417B1, “Skin and hair darkening composition” (Chesebrough-Pond's USA Co., division of Conopco, Inc., priority 1997, dated 2004).

Assay [1] relates to tyrosinase. As to the kind of experiment: In vitro enhancement of melanin formation (Example 3). Conditions: 18 nmoles polyamino acid; DL-DOPA, 20 nmoles lysozyme, 0.45 mg tyrosinase, acetate buffer pH 5.0; absorbance at 400 nm; control 0.120. The class given is biochemical. On the procedure:
(§1) The assay conditions for the formation of melanin under in vitro conditions are as follows.
The control assay mixture contained 5 mmoles of DL-DOPA (Dihydroxy phenyl alanine), lysozyme 20 nmoles and 0.45 mg of tyrosinase in acetate buffer pH 5.0 in a test tube. In the experimental set 18 nmoles of the polyglutamate, a polyamino acid sequence with pI 2.5 or polyarginine pI 10.9 or polylysine pI 11.0 was used in addition to the other ingredients as defined in the control. The melanin formed was washed with the buffer, suspended in 1 N sodium hydroxide and dissolved by heating the sample at 60° C. for 5 minutes. The absorbance was measured at 400 nm.

The test system of assay [2] is tyrosinase. As to the kind of experiment: In vitro enhancement of melanin formation (Example 1). The format is biochemical.
Text: as §1
The control assay mixture contained 5 pmoles of DL-DOPA (Dihydroxy phenyl alanine), 20nmoles lysozyme and 3.2 units of tyrosinase in acetate buffer pH 5.0 in a test tube. A unit is defined as the amount of tyrosinase needed to convert 1 nmol DOPA in one minute. In the experimental set 11 nmoles of polylysine, a polyamino acid sequence with pI 11.0, was used in addition to the other ingredients as defined in the control. The melanin formed was washed with the acetate buffer, suspended in 1N sodium hydroxide and dissolved by heating the sample at 60° C. for 5 minutes. The absorbance was measured at 400 nm.

As for polyglutamate [reference compound], in the assay on tyrosinase [1], the “Melanin formed A 400” value amounted to 0.048. The same measure, in the same setting: under polyarginine stands 0.182. For the substance polylysine, the “Melanin formed A 400” value is given as 0.168 in the assay with tyrosinase [2] (11 nmoles polyamino acid, DL-DOPA, 20 nmoles lysozyme, 3.2 units tyrosinase, acetate buffer pH 5.0, absorbance at 400 nm, control 0.120) and 0.168 in the assay on tyrosinase [1]. In the assay with tyrosinase [2] (in presence of polylysine versus control, pH 5), the “melanin production (in words)” value is reported as “significantly enhanced”.
